As a reminder, the IC50 is the concentration that gives 50% inhibition. The melting point is the temperature of the solid-liquid transition.

One data set concerns steroid sulfatase. The experiment in a line: Anti uterotrophic/anti steroid sulfatase activity in vivo. The arrangement: species or system rat. The conditions noted are these: ovariectomized Wistar female rats, E1S 50 μg/kg/day s.c., oral 1 mg/kg/day for 4 days; % of inhibition of the E1S induced stimulation. As to the method: Wistar female rats were ovariectomized and left to rest for 4 weeks. Prior to treatment, the absence of cyclicity was checked by vaginal smears. Animals were supplemented with estrone sulfate (EIS) at 50 μg/kg/day s.c., alone or combined with oral administration of potential sulfatase inhibitors, at 1 mg/kg/day for 4 days. The uteri were removed, freed of adjacent tissue and wet weighed (Table 3).
Estrone sulfatase activity is measured according to the method described by Purohit et al., with slight modifications. Briefly, uteri were thawed, weighed and homogenized. Aliquots of the supernatant were treated with dextran-coated charcoal and assayed for sulfatase. E1S activity is assessed after 30 min of incubation with 5 nM of ^3H-E1S and 20 μM of unlabelled E1S as substrate. Estrone sulfatase activity is expressed as pmol/h/mg protein and reported as percentage of inhibition vs E1S; for uterus weights, results are expressed as % of inhibition of the E1S induced stimulation

The target of a further data set is T1, human estrone sulfatase (Homo sapiens, UniProt P08842).
T1 construct: The JEG-3 cell line is intrinsically very rich in human estrone sulfatase; endogenous in cells; host or cells: JEG-3 (human placental choriocarcinoma)
T1 sequence (P08842 22-583): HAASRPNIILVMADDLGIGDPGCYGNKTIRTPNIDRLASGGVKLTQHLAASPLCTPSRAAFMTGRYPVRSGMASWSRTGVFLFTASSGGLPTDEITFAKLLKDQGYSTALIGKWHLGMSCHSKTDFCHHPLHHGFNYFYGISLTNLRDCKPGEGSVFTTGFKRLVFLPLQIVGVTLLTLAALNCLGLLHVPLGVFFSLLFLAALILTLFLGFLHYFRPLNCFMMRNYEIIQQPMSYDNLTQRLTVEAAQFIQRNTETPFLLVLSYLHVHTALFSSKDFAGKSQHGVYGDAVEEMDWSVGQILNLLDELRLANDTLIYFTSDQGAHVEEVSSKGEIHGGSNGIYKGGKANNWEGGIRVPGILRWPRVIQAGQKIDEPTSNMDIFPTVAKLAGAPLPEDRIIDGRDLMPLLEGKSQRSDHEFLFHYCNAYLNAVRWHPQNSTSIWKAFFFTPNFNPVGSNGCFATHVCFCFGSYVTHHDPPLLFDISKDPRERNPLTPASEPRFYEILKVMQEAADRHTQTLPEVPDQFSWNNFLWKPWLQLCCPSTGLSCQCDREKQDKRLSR
Nature of the data set: Steroid (estrone) sulfatase activity alone in JEG-3 cells. The format is cell-based. The conditions noted are these: footnote b: sulfatase activity alone, nd: not detected, read-out: Sulfatase activity IC50 (nM) ± S.E.M. On the procedure:
(§1) The JEG-3 cell line is intrinsically very rich in human estrone sulfatase and therefore is a useful biological system to evaluate new steroid sulfatase inhibitors in vitro. Assays were carried out with cells in logarithmic growth phase on 96-well microplates. 24 h before studies, cells were seeded in decomplemented fetal calf serum (dFCS) supplemented medium. The medium was removed 24 h later and cells were rinsed with PBS to eliminate any trace of dFCS. Then, ^3H-E1S was added in dFCS free medium, followed by test compounds at concentrations ranging from 10^−12 M to 10^−5 M. After 4 h of treatment, the medium was transferred into 96-deep-well microplates and centrifuged at 200×g for 10 min to pellet cells before toluene extraction. A fraction of the medium was used for toluene extraction in order to separate the conjugated substrate from non-conjugated products. The radioactivity in the toluene phase was measured by liquid scintillation counting. In parallel, after cell solubilization in a ethylenediamine tetraacetate solution, DNA content was measured by a standard fluorimetric method using the Hoechst 33258 fluorochrome. Finally, estrone sulfatase activity was expressed in pmoles of ^3H-E1+^3H-E2 formed/4 hours/mg DNA and estrone sulfatase inhibition as a percentage of control activity without inhibitor.

The target of a further data set is T2, human steroid sulfatase (Homo sapiens, UniProt P08842).
T2 construct: The JEG-3 cell line is intrinsically very rich in human estrone sulfatase; endogenous in cells; host or cells: JEG-3 (human placental choriocarcinoma)
T2 sequence (P08842 22-583): T1 sequence (P08842 22-583)
The experiment in a line: Dual aromatase and steroid sulfatase activities in JEG-3 cells: sulfatase readout. The conditions noted are these: footnote c: dual aromatase and sulfatase activity, nd: not detected, read-out: Sulfatase activity IC50 (nM) ± S.E.M. The format is cell-based. As to the method: as §1
(§2) In order to evaluate the inhibitory potency of DASI compounds in parallel on both human aromatase and steroid sulfatase activities, a new in vitro model was set up using JEG-3 cells. The experimental conditions of the steroid sulfatase model previously described was adopted with slight modifications: the presence of the two substrates ^3-HE1S and 1β-^3H-androstenedione into the medium and an incubation period of 2 hours. Results were expressed in pmoles of product formed (^3H-E1+^3H-E2 or ^3H2O)/2 hours/mg DNA (Table 1).

The target in data set [1] is T3, human aromatase (Homo sapiens, UniProt P11511).
T3 construct: The JEG-3 cell line, derived from a human placental choriocarcinoma, constitutively overexpresses human aromatase; endogenous in cells; host or cells: JEG-3 (human placental choriocarcinoma)
T3 sequence (P11511 1-503): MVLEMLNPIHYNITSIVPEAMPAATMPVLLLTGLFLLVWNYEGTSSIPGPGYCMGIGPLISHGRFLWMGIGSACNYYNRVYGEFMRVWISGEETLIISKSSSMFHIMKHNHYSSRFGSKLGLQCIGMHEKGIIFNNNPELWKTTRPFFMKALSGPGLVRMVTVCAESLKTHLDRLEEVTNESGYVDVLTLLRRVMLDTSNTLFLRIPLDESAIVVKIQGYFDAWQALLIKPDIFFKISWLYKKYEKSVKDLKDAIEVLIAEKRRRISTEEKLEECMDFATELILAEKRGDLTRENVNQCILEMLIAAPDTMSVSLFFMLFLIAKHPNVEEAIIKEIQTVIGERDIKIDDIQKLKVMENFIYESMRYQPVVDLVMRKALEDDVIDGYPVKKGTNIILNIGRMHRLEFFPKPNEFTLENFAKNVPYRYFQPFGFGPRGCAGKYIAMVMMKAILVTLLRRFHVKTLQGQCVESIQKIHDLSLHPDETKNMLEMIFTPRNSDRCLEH
The experiment in a line: Aromatase activity alone, tritiated water method in JEG-3 cells. Particulars: footnote a: aromatase activity alone, nd: not detected, read-out: Aromatase activity IC50 (nM) ± S.E.M. The format is cell-based. As to the method:
The JEG-3 cell line, derived from a human placental choriocarcinoma, constitutively overexpresses human aromatase and represents a relevant model for assaying putative aromatase inhibitors in vitro. Aromatase activity was determined by the tritiated water method. In brief, cells were first seeded into 96-well microplates in decomplemented fetal calf serum (dFCS) supplemented medium. 24 hours later, cells were rinsed and fresh medium containing 1β-^3H-androstenedione as aromatase substrate was added together with test compounds at concentrations ranging from 10^−12 M to 10^−5 M. After 2 hours of incubation, a fraction of the medium was transferred to homologous new 96-well microplates and a dextran-coated charcoal solution was added to each well. Following standing on ice for 10 minutes, microplates were centrifuged (1500 g; 4° C.). All steroids, including the radioactive substrate and the newly biosynthesized estrogens, were adsorbed on charcoal; only ^3H-water specifically formed during aromatisation of 1β-^3H-androstenedione, remained in the supernatant. The radioactivity in the supernatant was measured by liquid scintillation counting. In parallel, cell solubilization was performed in ethylenediamine tetraacetate solution. […] Finally, aromatase activity was expressed in fmoles of ^3H-water formed/2 hours/μg DNA and aromatase inhibition as a percentage of control activity without inhibitor.

For another data set, the system named is Ishikawa cells. Nature of the data set: Alkaline phosphatase activity in Ishikawa cells (estrogenic potency). The format is cell-based. On the procedure: Ishikawa cells were plated into 96-well microplates 48 hours before studies. The next day, the medium was replaced by phenol red free medium supplemented with 5% charcoal-stripped dFCS. 24 hours later, the medium was renewed and compounds were added to the plated cells and incubated for an additional four-day period. […] At the end of the incubation period, alkaline phosphatase activity (APase) was assayed by a method involving the hydrolysis of p-nitrophenyl phosphate to p-nitrophenol and spectrophotometric determination of the product at 405 nm.
In brief, the microplates were first rinsed twice with cold phosphate buffered solution and then placed at −80° C. for at least 15 minutes. After thawing at room temperature, 50 μl ice-cold solution containing 5 mM p-nitrophenyl phosphate was added to each well. After a 15 to 60 minute incubation period at room temperature, the intensity of the yellow color generated by the production of p-nitrophenol was measured into each well at 405 nm.
For each tested concentration, APase activity, reflected by absorbance, was first expressed as fold increase over control (FI) and then as percentage of E2 activity (10^-8 M) chosen equal to 100%.

For data set [2], the target named is T3, human aromatase. The experiment in a line: Dual aromatase and steroid sulfatase activities in JEG-3 cells: aromatase readout. Particulars: footnote c: dual aromatase and sulfatase activity, nd: not detected, read-out: Aromatase activity IC50 (nM) ± S.E.M. The class given is cell-based. On the procedure: as §1, with “Assays” for “The JEG-3 cell line is intrinsically very rich in human estrone sulfatase and therefore is a useful biological system to evaluate new steroid sulfatase inhibitors in vitro. Assays”, “In parallel, after cell solubilization in a ethylenediamine tetraacetate solution, DNA content was measured by a standard fluorimetric method using the Hoechst 33258 fluorochrome.” left out
as §2

The target of data set [3] is human carbonic anhydrase II (Homo sapiens, UniProt P00918). Nature of the data set: Human carbonic anhydrase II activity (p-nitrophenyl acetate, colorimetric). The format is biochemical. The conditions noted are these: read-out: Human carbonic anhydrase II activity IC50 (nm) ± S.E.M. On the procedure:
Briefly, in this assay, human carbonic anhydrase II catalyses the conversion of p-nitrophenyl acetate into pnitrophenol. The potential inhibitory effect of test compounds was evaluated by colorimetric determination of prnitrophenol produced during the enzymatic reaction. The optical density levels obtained without inhibitor will be referred to as “total activity”. The levels obtained without Inhibitor and without the enzyme will be referred to as “blank” in order to assess any interference with the substrate during the assay (Table 2).

Data set [4] has as its system aromatase. The experiment in a line: Inhibition of estradiol peak, in vivo aromatase inhibition model. The arrangement: species or system rat. The conditions noted are these: female rats, 24 hours after one oral administration. As to the method: One hundred IOPS Wistar female rats, weighing 180 to 200 g, were accommodated by four in stainless steel mesh cages. […] Vaginal smears were performed for each animal, each morning, in order to establish the different phases of cycle. […] Starting at 4.00 pm, animals received an oral administration of formulations. 24 hours later, samples of serum were collected and estradiol level were determined as previously described (Table 4).

In data set [5] the test system is aromatase. Particulars: 3 μg/kg, 24 hours after one single oral administration in female rats; cited from earlier work.

On to `NS(=O)(=O)Oc1ccc2c3c(c(=O)oc2c1)CCCCC3` [6,6,7 COUMATE, 6,6,7-COUMATE, reference compound], for which, in the data set on steroid sulfatase, the “% inhibition (uterus weight)” value stood at 81%.
Regarding `NS(=O)(=O)Oc1ccc2c(c1)S(=O)(=O)C=C2CC1CCCCCC1` [A*, sulfamic acid, 3-cycloheptylmethylbenzothiophen-6-yl-1,1-dioxide-ester, reference compound], the IC50 on human estrone sulfatase came out at 2.5 ± 0.5 nM; at human steroid sulfatase it was 3.6 ± 0.8 nM.
With `N#Cc1ccc(N(Cc2ccc(OS(N)(=O)=O)cc2)n2ccnc2)cc1` [Ex 43, Sulfamic acid-4-{[N-(4-cyanophenyl)-N-(1H-imidazol-1yl)amino]methyl}phenyl ester], the melting point was 172 °C. For the same compound, the IC50 on human aromatase [1] is 0.57 ± 0.16 nM. Besides, the IC50 at human estrone sulfatase is approximately 10 nM. The “estrogenicity in vitro (in words)” value in the data set on Ishikawa cells is recorded as “not estrogenic”.
In the case of `COc1cc(CN(c2ccc(C#N)cc2)n2ccnc2)ccc1OS(N)(=O)=O` [Ex 46, Sulfamic acid 2-methoxy-4-{[N-(4-cyanophenyl)-N-(1H-imidazol-1yl)amino]methyl}phenyl ester], the melting point came to 211 °C. For the same compound, at human aromatase [1], the IC50 is 0.79 ± 0.26 nM. In addition, the IC50 on human estrone sulfatase stood at 13.8 ± 2.5 nM. Also, the “estrogenicity in vitro (in words)” value in the data set on Ishikawa cells is given as “not estrogenic”.
As for `N#Cc1ccc(N(Cc2ccc3c(c2)C=NS(=O)(=O)O3)n2ccnc2)cc1` [Ex 48, 4-[N-[(2,2-dioxido-1,2,3-benzoxathiazin-6-yl)methyl]-N-(1H-imidazol-1-yl)amino]benzonitrile], the melting point turned out to be 180 °C. For the same compound, at human aromatase [1], the IC50 worked out at 0.82 ± 0.12 nM. At human estrone sulfatase, the IC50 amounted to 2660 ± 257 nM.
On to `N#Cc1ccc(N(CCOc2ccc(OS(N)(=O)=O)cc2)n2ccnc2)cc1` [Ex 51, Sulfamic acid 4-{2-[N-(4-cyanophenyl)-N-(1H-imidazol-1yl)amino]ethoxy}phenyl ester], for which the melting point is 174 °C. Moreover, the IC50 at human aromatase [2] turned out to be 0.34 ± 0.13 nM. At human steroid sulfatase, the IC50 is 597 ± 67.4 nM. In addition, the IC50 in data set [3] is 6.5 ± 0.9 nM.
Take `CC(C)(C#N)c1cc(Cn2cncn2)cc(C(C)(C)C#N)c1` [anastrozole, reference compound]: the “% inhibition (estradiol peak)” value in the data set on aromatase [4] is 56%. Besides, the “estradiol levels (in words)” value in the data set on aromatase [5] is given as “significantly inhibits”.

These data come from patent publication US8476455B2, “1-N-phenyl-amino-1h-imidazole derivatives and pharmaceutical compositions containing them” (Laboratoire Theramex, priority 2003, dated 2013).
